IC50 data for six compounds are collected here from patent publication US7211597B2, “Substituted pyrazolyl compounds for the treatment of inflammation” (priority 2001, dated 2007).

The target in this test is T1, IKK heterodimer (rhIKK1/IKK2) (Homo sapiens, UniProt O14920+O15111).
T1 construct: made in house; host or cells: baculovirus-infected insect cells (SF9)
T1 sequence (O14920 1-756): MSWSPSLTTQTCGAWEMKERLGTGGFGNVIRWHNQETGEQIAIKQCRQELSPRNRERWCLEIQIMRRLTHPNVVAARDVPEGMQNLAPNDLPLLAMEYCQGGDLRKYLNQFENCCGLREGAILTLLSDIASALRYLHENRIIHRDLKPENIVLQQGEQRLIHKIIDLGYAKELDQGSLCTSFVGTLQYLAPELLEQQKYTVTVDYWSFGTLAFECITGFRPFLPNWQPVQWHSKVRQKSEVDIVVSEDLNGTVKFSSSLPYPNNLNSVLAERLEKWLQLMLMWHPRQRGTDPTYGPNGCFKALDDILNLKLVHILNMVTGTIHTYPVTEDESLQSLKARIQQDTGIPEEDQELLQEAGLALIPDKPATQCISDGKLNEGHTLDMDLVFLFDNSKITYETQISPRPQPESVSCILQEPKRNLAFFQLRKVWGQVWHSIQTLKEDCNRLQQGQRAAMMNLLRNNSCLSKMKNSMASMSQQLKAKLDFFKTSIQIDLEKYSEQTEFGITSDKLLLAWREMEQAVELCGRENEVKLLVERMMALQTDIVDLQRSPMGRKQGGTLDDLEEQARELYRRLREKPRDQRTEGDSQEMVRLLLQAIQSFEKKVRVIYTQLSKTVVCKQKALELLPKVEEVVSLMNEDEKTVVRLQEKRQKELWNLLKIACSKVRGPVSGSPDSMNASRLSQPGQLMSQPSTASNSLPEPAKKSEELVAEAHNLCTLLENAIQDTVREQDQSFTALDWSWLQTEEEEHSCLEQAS
T1 sequence (O15111 1-745): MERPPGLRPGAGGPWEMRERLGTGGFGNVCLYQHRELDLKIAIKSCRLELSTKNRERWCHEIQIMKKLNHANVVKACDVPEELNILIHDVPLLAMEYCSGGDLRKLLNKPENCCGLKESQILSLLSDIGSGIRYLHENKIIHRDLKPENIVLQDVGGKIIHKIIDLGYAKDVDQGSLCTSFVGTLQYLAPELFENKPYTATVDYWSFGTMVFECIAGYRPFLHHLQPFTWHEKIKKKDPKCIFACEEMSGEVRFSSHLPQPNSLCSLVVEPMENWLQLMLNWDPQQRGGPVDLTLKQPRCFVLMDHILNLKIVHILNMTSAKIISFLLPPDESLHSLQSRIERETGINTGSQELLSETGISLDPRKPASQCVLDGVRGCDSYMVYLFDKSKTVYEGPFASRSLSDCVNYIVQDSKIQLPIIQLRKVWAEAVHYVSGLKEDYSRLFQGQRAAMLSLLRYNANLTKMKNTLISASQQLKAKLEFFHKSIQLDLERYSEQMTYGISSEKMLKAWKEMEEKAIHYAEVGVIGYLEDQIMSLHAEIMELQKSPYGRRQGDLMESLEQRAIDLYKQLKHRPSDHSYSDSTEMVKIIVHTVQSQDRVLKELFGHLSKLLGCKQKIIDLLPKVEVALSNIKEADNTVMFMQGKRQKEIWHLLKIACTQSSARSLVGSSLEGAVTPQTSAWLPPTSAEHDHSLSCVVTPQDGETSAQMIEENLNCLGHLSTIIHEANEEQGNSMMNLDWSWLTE
In words: IKK heterodimer resin enzyme assay. The class given is biochemical. Particulars: Table 1; read-out: HetD (IKK heterodimer assay values expressed as IC50). The text has this:
cDNAs of human IKK1 and IKK2 were amplified by reverse transcriptase-polymerase chain reaction from human placental RNA (Clonetech). hIKK1 was subcloned into pFastBac HTa (Life Technologies) and expressed as N-terminal His6-tagged fusion protein. The hIKK2 cDNA was amplified using a reverse oligonucleotide primer which incorporated the peptide sequence for a FLAG-epitope tag at the C-terminus of the IKK2 coding region (DYKDDDDKD). The hIKK2:FLAG cDNA was subcloned into the baculovirus vector pFastBac. The rhIKK2 ([…]) mutant was constructed in the same vector used for wild type rhIKK2 using a QuikChange™ mutagenesis kit (Stratagene). Viral stocks of each construct were used to infect insect cells grown in 40L suspension culture. […] Cell lysates were stored at −80° C. until purification of the recombinant proteins was undertaken as described below.
Isolation of rhIKK1/IKK2 Heterodimer
The heterodimer enzyme was produced by coinfection in a baculovirus system (FLAG IKK2/IKK1 His; MOI=0.1 and I=72 hrs). Infected cells were centrifuged and the cell pellet (10.0 g) was suspended in 50 ml of buffer A. The protein suspension was microfluidized and centrifuged at 100,000×g for 45 min. Imidazole was added to the supernatant to a final concentration of 10 mM. The protein was allowed to bind 25 ml of Ni-NTA resin by mixing for 2 hrs. The protein-resin slurry was poured into a 25 ml column and washed with 250 ml of buffer A containing 10 mM imidazole followed by 125 ml of buffer A containing 50 mM imidazole. Buffer A, containing 300 mM imidazole, was then used to elute the protein. A 75 ml pool was collected and NP-40 was added to a final concentration of 0.1%. The protein solution was then dialyzed against buffer B. The dialyzed heterodimer enzyme was then allowed to bind to 25 ml of anti-FLAG M2 agarose affinity gel overnight with constant mixing. The protein-resin slurry was then centrifuged for 5 min at 2,000 rpm. The supernatant was collected and the resin re-suspended in 100 ml of buffer C containing 0.1% NP-40. The resin was washed with 375 ml of buffer C containing 0.1% NP-40. The protein-resin was poured into a 25 ml column and the enzyme eluted using buffer B containing FLAG peptide. Enzyme fractions (100 ml) were collected and concentrated to 20 ml using an Amicon membrane with molecular weight cut-off of 30 kDa. Bovine serum albumin was added to the concentrated enzyme to final concentration of 0.1%. The enzyme was then aliquoted and stored at −80° C.
IKK Heterodimer Resin Enzyme Assay
IKK heterodimer kinase activity was measured using a biotinylated IκBα peptide (Gly-Leu-Lys-Lys-Glu-Arg-Leu-Leu-Asp-Asp-Arg-His-Asp-Ser32-Gly-Leu-Asp-Ser36-Met-Lys-Asp-Glu-Glu) (American Peptide Co.). 20 ul of the standard reaction mixture contained 5 μM biotinylated IκBα peptide, 0.1 μCi/reaction [γ-^33P] ATP (Amersham) (about 1×10^5 cpm), 1 μM ATP (Sigma), 1 mM DTT (Sigma), 2 mM MgCl2 (Sigma), 2 mM MnCl2 (Sigma), 10 mM NaF (Sigma), 25 mM Hepes (Sigma) buffer, pH 7.6 and 20 μl enzyme solution and 10 μl inhibitor in a final volume of 50 μl. After incubation at 25° C. for 30 min, 150 μl resin (Dowex anion-exchange resin AG1X8 200-400 mesh) in 900 mM formate, pH 3.0 was added to each well to stop the reaction. Resin was allowed to settle for one hour and 50 ul of supernatant was removed to a Micolite-2 flat bottom plate (Dynex). 150 μl of scintillation fluid (Microscint 40) (Packard) was added to each well. Incorporation of [γ-^33P] ATP was measured using a Top-Count NXT (Packard).
As for `CCOC(=O)c1nn(-c2ccc(OOSN)cc2)c2c1SCc1ccccc1-2` [Example 9, ethyl 1-{4-[(aminothio)peroxy]phenyl}-1,5-dihydroisothiochromeno[4,3-c]pyrazole-3-carboxylate], the IC50 (usually the concentration needed to halve the response being measured) is greater than 100 µM. With `NSOOc1ccc(-n2nc(C(N)=O)c3c2-c2ccccc2CS3)cc1` [Example 10, 1-{4-[(aminothio)peroxy]phenyl}-1,5-dihydroisothiochromeno[4,3-c]pyrazole-3-carboxamide], the IC50 is greater than 100 µM. In the case of `NSOOc1ccc(-n2nc(C(N)=O)c3c2-c2ccc4c(c2CS3)OCO4)cc1` [Example 11, 8-{4-[(aminothio)peroxy]phenyl}-4,8-dihydro[1,3]dioxolo[7,8]isothiochromeno[4,3-c]pyrazole-6-carboxamide] it was greater than 100 µM; in that of `CCOC(=O)c1nn(-c2ccc(S(N)(=O)=O)cc2)c2c1CNc1ccccc1-2` [Example 12, ethyl 1-[4-(aminosulfonyl)phenyl]-4,5-dihydro-1H-pyrazolo[4,3-c]quinoline-3-carboxylate], greater than 100 µM. With `CCOC(=O)c1nn(-c2ccc(S(N)(=O)=O)cc2)c2c1CN(S(=O)(=O)c1ccc(C)cc1)c1ccccc1-2` [Example 14, ethyl 1-[4-(aminosulfonyl)phenyl]-5-[(4-methylphenyl)sulfonyl]-4,5-dihydro-1H-pyrazolo[4,3-c]quinoline-3-carboxylate], the IC50 is greater than 100 µM. As to `Cc1ccc(S(=O)(=O)N2Cc3c(C(N)=O)nn(-c4ccc(S(N)(=O)=O)cc4)c3-c3ccccc32)cc1` [Example 15, 1-[4-(aminosulfonyl)phenyl]-5-[(4-methylphenyl)sulfonyl]-4,5-dihydro-1H-pyrazolo[4,3-c]quinoline-3-carboxamide], the IC50 was greater than 100 µM.
